In patent publication US20050245399A1, “Pyrazole derivatives as herbicidal compositions containing them” (ISHIHARA SANGYO KAISHA, LTD., priority 2004, published 2005):

Experiments:
Assay type in all cases: in vivo
[1] = tested on: barnyardgrass (Echinochloa crus-galli L.), ECHCG; experiment: Test Example 2 post-emergence (foliage treatment) herbicidal activity, ECHCG; settings: 63 g a.i./ha
Method in brief: (§1)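 Plants grown in upland soil pots were sprayed on foliage at set leaf stages (ECHCG 1.1-2.1, DIGSA 1.0-2.0, AMARE 0.1-1.5, ORYSA 1.0-2). Formulated compound was applied at predetermined active-ingredient amounts in 500 L/ha water with 0.1% (v/v) spreader. Growth control (0–100%) was visually scored 20–23 days later.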

[2] = tested on: prickly sida (Sida spinosa L.), SIDSP; experiment: Test Example 2 post-emergence (foliage treatment) herbicidal activity, SIDSP; settings: 63 g a.i./ha
Method in brief: (§2)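 A small sprayer delivered the diluted WP or EC formulation (500 L/ha water, 0.1% v/v spreader) over emerged seedlings in upland soil pots. Damage relative to untreated plants was graded visually from 0 to 100% three weeks or so later (days 20-23).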

[3] = tested on: barnyardgrass (Echinochloa crus-galli L.): ECHCG; experiment: Test Example 1 pre-emergence herbicidal activity, ECHCG; settings: visually observed 20th to 23rd day after application
Method in brief: (§3)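 Pots of upland soil were sown, and one day later WP or EC formulations at set active-ingredient rates were sprayed pre-emergence in 500 L/ha water. Growth control scored visually 20–23 days after application, 0 (as untreated) to 100 (complete kill).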

[4] = tested on: redroot pigweed (Amaranthus retroflexus L.): AMARE; experiment: Test Example 1 pre-emergence herbicidal activity, AMARE; settings: visually observed 20th to 23rd day after application
Method in brief: as §3

[5] = tested on: japanese bulrush (Scirpus juncoides: SCPJO); experiment: Test Example 3 water application herbicidal activity (paddy), SCPJO; settings: 63 g a.i./ha, water application under submerged condition at 0.5 leaf stage, visually observed 14th day after application; 0 = untreated control, 100 = complete kill
Method in brief: (§4)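 Submerged application in flooded paddy soil (3–4 cm water); weeds treated at 0.5-leaf stage, transplanted rice 4 d after transplanting. Scored visually as % growth control: weeds at 14 d, rice at 21 d.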

[6] = tested on: green foxtail (Setaria viridis L.): SETVI; experiment: Test Example 1 pre-emergence herbicidal activity, SETVI; settings: visually observed 20th to 23rd day after application
Method in brief: as §3

[7] = tested on: green foxtail (Setaria viridis L.), SETVI; experiment: Test Example 2 post-emergence (foliage treatment) herbicidal activity, SETVI; settings: 63 g a.i./ha
Method in brief: as §2

[8] = tested on: soybean (Glycine max Merr.): GLXMA; experiment: Test Example 1 pre-emergence herbicidal activity, GLXMA; settings: visually observed 20th to 23rd day after application
Method in brief: as §3

[9] = tested on: prickly sida (Sida spinosa L.): SEDSP; experiment: Test Example 1 pre-emergence herbicidal activity, SIDSP; settings: visually observed 20th to 23rd day after application
Method in brief: as §3

[10] = tested on: japanese ribbon wapato (Sagittaria pygmaea: SA GPY); experiment: Test Example 3 water application herbicidal activity (paddy), SAGPY; settings: 63 g a.i./ha, water application under submerged condition, tubers planted, visually observed 14th day after application; 0 = untreated control, 100 = complete kill
Method in brief: as §4

[11] = tested on: velvetleaf (Abutilon theophrasti), ABUTH; experiment: Test Example 2 post-emergence (foliage treatment) herbicidal activity, ABUTH; settings: 63 g a.i./ha
Method in brief: as §2

[12] = tested on: barnyardgrass (Echinochiloa oryzicola: ECHOR); experiment: Test Example 3 water application herbicidal activity (paddy), ECHOR; settings: 63 g a.i./ha, water application under submerged condition at 0.5 leaf stage, visually observed 14th day after application; 0 = untreated control, 100 = complete kill
Method in brief: as §4

[13] = tested on: wheat (Triticum aestivum L.), TRZAX; experiment: Test Example 2 post-emergence (foliage treatment) herbicidal activity, TRZAX; settings: 63 g a.i./ha
Method in brief: as §2

[14] = tested on: corn (Zea mays L.), ZEAMX; experiment: Test Example 2 post-emergence (foliage treatment) herbicidal activity, ZEAMX; settings: 63 g a.i./ha
Method in brief: as §2

[15] = tested on: crabgrass (Digitaria sanguinalis L.), DIGSA; experiment: Test Example 2 post-emergence (foliage treatment) herbicidal activity, DIGSA; settings: 63 g a.i./ha
Method in brief: as §1

[16] = tested on: velvetleaf (Abutilon theophrasti): ABUTH; experiment: Test Example 1 pre-emergence herbicidal activity, ABUTH; settings: visually observed 20th to 23rd day after application
Method in brief: as §3

[17] = tested on: crabgrass (Digitaria sanguinalis L.): DIGSA; experiment: Test Example 1 pre-emergence herbicidal activity, DIGSA; settings: visually observed 20th to 23rd day after application
Method in brief: as §3

[18] = tested on: wheat (Triticum aestivum L.): TRZAX; experiment: Test Example 1 pre-emergence herbicidal activity, TRZAX; settings: visually observed 20th to 23rd day after application
Method in brief: as §3

[19] = tested on: rice (Oryza sativa L.: ORYSA); experiment: Test Example 3 water application herbicidal activity (paddy), transplanted rice ORYSA; settings: 63 g a.i./ha, water application 4th day after transplantation of 2 leaf stage rice, visually observed 21st day after application; 0 = untreated control, 100 = complete kill
Method in brief: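 Rice at 2-leaf stage is transplanted into flooded puddled soil and treated by water application 4 days later, at a predetermined active-ingredient dose. Crop injury is rated visually as growth control (0–100%) 21 days after treatment.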

[20] = tested on: rice (Oryza sativa L.): ORYSA; experiment: Test Example 1 pre-emergence herbicidal activity, ORYSA; settings: visually observed 20th to 23rd day after application
Method in brief: as §3

[21] = tested on: rice (Oryza sativa L.), ORYSA; experiment: Test Example 2 post-emergence (foliage treatment) herbicidal activity, ORYSA; settings: 63 g a.i./ha
Method in brief: as §1

[22] = tested on: soybean (Glycine max Merr.), GLXMA; experiment: Test Example 2 post-emergence (foliage treatment) herbicidal activity, GLXMA; settings: 63 g a.i./ha
Method in brief: as §2

[23] = tested on: corn (Zea mays L.): ZEAMX; experiment: Test Example 1 pre-emergence herbicidal activity, ZEAMX; settings: visually observed 20th to 23rd day after application
Method in brief: as §3

[24] = tested on: redroot pigweed (Amaranthus retroflexus L.), AMARE; experiment: Test Example 2 post-emergence (foliage treatment) herbicidal activity, AMARE; settings: 63 g a.i./ha
Method in brief: as §1

Row | SMILES | growth controlling degree, ECHCO [1] [%] | growth controlling degree, SIDSP [2] [%] | Pre-emergence Herbicidal Activity ECHCG (growth controlling degree) ([3]; Rate 63 g a.i./ha) [%] | Pre-emergence Herbicidal Activity AMARE (growth controlling degree) ([4]; Rate 63 g a.i./ha) [%] | growth controlling degrees (%) SCPJO [5] [%] | Pre-emergence Herbicidal Activity SETVI (growth controlling degree) ([6]; Rate 63 g a.i./ha) [%] | growth controlling degree, SETVI [7] [%] | Pre-emergence Herbicidal Activity GLXMA (growth controlling degree) ([8]; Rate 63 g a.i./ha) [%] | Pre-emergence Herbicidal Activity SIDSP (growth controlling degree) ([9]; Rate 63 g a.i./ha) [%] | growth controlling degrees (%) SAGPY [10] [%] | growth controlling degree, ABUTH [11] [%] | growth controlling degrees (%) ECHOR [12] [%] | growth controlling degree, TRZAX [13] [%] | growth controlling degree, ZEAMX [14] [%] | growth controlling degree, DIGSP [15] [%] | Pre-emergence Herbicidal Activity ABUTH (growth controlling degree) ([16]; Rate 63 g a.i./ha) [%] | growth controlling degrees (%) ORYSA [19] [%] | growth controlling degree, ORYSA [21] [%] | growth controlling degree, GLXMA [22] [%] | growth controlling degree, AMARE [24] [%] | also measured
1 | COc1ccc(COC(=O)Nc2c(OC)c(Cl)cc(F)c2-c2nn(C)c(OC(F)F)c2Cl)cc1 [Compound 1-56] | 90 | 100 | 50 | 100 | 95 | 80 | 100 | 0 | 70 | 80 | 100 | 100 | 50 | 80 | 98 | 60 | 35 | 90 | 100 | 100 | Pre-emergence Herbicidal Activity DIGSP (growth controlling degree) ([17]; Rate 63 g a.i./ha): 70%; Pre-emergence Herbicidal Activity TRZAX (growth controlling degree) ([18]; Rate 63 g a.i./ha): 0%; Pre-emergence Herbicidal Activity ORYSA (growth controlling degree) ([20]; Rate 63 g a.i./ha): 20%; Pre-emergence Herbicidal Activity ZEAMX (growth controlling degree) ([23]; Rate 63 g a.i./ha): 10%
2 | COc1c(Cl)cc(F)c(-c2nn(C)c(OC(F)F)c2Cl)c1NC(=O)c1ccc(F)cc1F [Compound 1-30] | 100 | 100 | 60 | 100 | 98 | 100 | 100 | 10 | 100 | 100 | 100 | 100 | 50 | 60 | 100 | 100 | 60 | 90 | 95 | 100 | Pre-emergence Herbicidal Activity DIGSP (growth controlling degree) ([17]; Rate 63 g a.i./ha): 100%; Pre-emergence Herbicidal Activity TRZAX (growth controlling degree) ([18]; Rate 63 g a.i./ha): 0%; Pre-emergence Herbicidal Activity ORYSA (growth controlling degree) ([20]; Rate 63 g a.i./ha): 10%; Pre-emergence Herbicidal Activity ZEAMX (growth controlling degree) ([23]; Rate 63 g a.i./ha): 10%
3 | C#CCNc1c(OC(F)F)c(Cl)cc(F)c1-c1nn(C)c(OC(F)F)c1Cl [Compound 1-87] | 100 | 100 | 100 | 100 | 100 | 100 | 100 | 40 | 98 | 100 | 100 | 100 | 50 | 100 | 100 | 80 | 70 | 70 | 95 | 100 | Pre-emergence Herbicidal Activity DIGSP (growth controlling degree) ([17]; Rate 63 g a.i./ha): 100%; Pre-emergence Herbicidal Activity TRZAX (growth controlling degree) ([18]; Rate 63 g a.i./ha): 10%; Pre-emergence Herbicidal Activity ORYSA (growth controlling degree) ([20]; Rate 63 g a.i./ha): 60%; Pre-emergence Herbicidal Activity ZEAMX (growth controlling degree) ([23]; Rate 63 g a.i./ha): 0%
4 | C#CCNc1c(OC)c(Cl)cc(F)c1-c1nn(C)c(OC(F)F)c1Cl [Compound 1-53] | 100 | 100 | 100 | 100 | 100 | 100 | 100 | 30 | 100 | 100 | 100 | 100 | 40 | 100 | 100 | 100 | 70 | 95 | 95 | 100 | Pre-emergence Herbicidal Activity DIGSP (growth controlling degree) ([17]; Rate 63 g a.i./ha): 100%; Pre-emergence Herbicidal Activity TRZAX (growth controlling degree) ([18]; Rate 63 g a.i./ha): 20%; Pre-emergence Herbicidal Activity ORYSA (growth controlling degree) ([20]; Rate 63 g a.i./ha): 50%; Pre-emergence Herbicidal Activity ZEAMX (growth controlling degree) ([23]; Rate 63 g a.i./ha): 20%
5 | COc1ccc(OC(=O)N(C(=O)Oc2ccc(OC)cc2)c2c(OC)c(Cl)cc(F)c2-c2nn(C)c(OC(F)F)c2Cl)cc1 [Compound 1-65] | 0 | 0 |  |  | 0 |  | 0 |  |  | 0 | 0 | 50 | 0 | 0 | 0 |  | 20 | 0 | 10 | 10 | Pre-emergence Herbicidal Activity ECHCG (growth controlling degree) ([3]; Rate 125 g a.i./ha): 0%; Pre-emergence Herbicidal Activity AMARE (growth controlling degree) ([4]; Rate 125 g a.i./ha): 20%; Pre-emergence Herbicidal Activity SETVI (growth controlling degree) ([6]; Rate 125 g a.i./ha): 10%; Pre-emergence Herbicidal Activity GLXMA (growth controlling degree) ([8]; Rate 125 g a.i./ha): 0%; Pre-emergence Herbicidal Activity SIDSP (growth controlling degree) ([9]; Rate 125 g a.i./ha): 10%; Pre-emergence Herbicidal Activity ABUTH (growth controlling degree) ([16]; Rate 125 g a.i./ha): 10%; Pre-emergence Herbicidal Activity DIGSP (growth controlling degree) ([17]; Rate 125 g a.i./ha): 0%; Pre-emergence Herbicidal Activity TRZAX (growth controlling degree) ([18]; Rate 125 g a.i./ha): 0%; Pre-emergence Herbicidal Activity ORYSA (growth controlling degree) ([20]; Rate 125 g a.i./ha): 0%; Pre-emergence Herbicidal Activity ZEAMX (growth controlling degree) ([23]; Rate 125 g a.i./ha): 0%
